The source of these data is patent US6555547B1, “Method for treating a patient with neoplasia by treatment with a vinca alkaloid derivative” (Cell Pathways, Inc., priority 2000, dated 2003).

Test [1] deals with T1, PDE Peak A (PDE5) from SW480 cells (Homo sapiens, UniProt O76074).
T1 construct: endogenous in cells; host or cells: SW480 colon cancer cells; DEAE-Trisacryl M fraction of the 105,000 g supernatant
In words: Inhibition of cGMP hydrolysis by PDE Peak A from SW480. The format is biochemical.

In test [2] the test system is cGMP and cAMP in HT-29 cells. In words: Cyclic nucleotide levels in HT-29 cells by radioimmunoassay. Type of test: cell-based, human. The following applies: HT-29 cells treated 30 minutes.
Test [3] deals with HT-29 cells. In words: Growth inhibition assay, SRB. Type of test: cell-based, human.
The test system of test [4] is premalignant lesions in mouse mammary gland organ culture. Description: Mammary gland organ culture model. The text has this:
Test compounds identified by the above methods can be tested for antineoplastic activity by their ability to inhibit the incidence of pre-neoplastic lesions in a mammary gland organ culture system. This mouse mammary gland organ culture technique has been successfully used by other investigators to study the effects of known antineoplastic agents such as certain NSAIDs, retinoids, tamoxifen, selenium, and certain natural products, and is useful for validation of the screening method of the present invention.
For example, female BALB/c mice can be treated with a combination of estradiol and progesterone daily, in order to prime the glands to be responsive to hormones in vitro. The animals are sacrificed, and thoracic mammary glands are excised aseptically and incubated for ten days in growth media supplemented with insulin, prolactin, hydrocortisone, and aldosterone. DMBA (7,12-dimethylbenz(a)anthracene) is added to medium to induce the formation of premalignant lesions. […]
The extent of the area occupied by the mammary lesions can be quantitated by projecting an image of the gland onto a digitation pad. […] The space covered by each of the non-regressed structures is also outlined on the digitization pad and quantitated by the computer. […]

For test [5], the target named is T2, cGMP binding sites of GST-cGB-PDE5 fusion protein (Homo sapiens, UniProt O76074).
T2 construct: made in house; host or cells: E. coli BL21 (DE3)
Description: cGMP binding assay. To be noted: for Competition with cGMP for binding of GST-cGB-PDE5 at high concentration: 100 μM, cGMP 2 μM.

Test [6] has as its system HT-29 cells. Description: Apoptosis and necrosis, morphological (acridine orange/ethidium bromide). The following applies: HT-29, treated 6 days. Type of test: cell-based, human. The text has this: Following treatment with a compound, cultures can be assayed for apoptosis and necrosis by florescent microscopy following labeling with acridine orange and ethidium bromide. The method for measuring apoptotic cell number has previously been described by Duke & Cohen, “Morphological And Biochemical Assays Of Apoptosis,” Current Protocols In Immunology, Coligan et al., eds., 3.17.1-3.17.16 (1992), which is incorporated herein by reference.
For example, floating and attached cells can be collected by trypsinization and washed three times in PBS. Aliquots of cells can be centrifuged. The pellet can then be re-suspended in media and a dye mixture containing acridine orange and ethidium bromide prepared in PBS and mixed gently. The mixture can then be placed on a microscope slide and examined for morphological features of apoptosis.
Reference compounds and test compounds were analyzed for their novel PDE inhibitory activity in accordance with the protocols for the assay, supra. […] Apoptotic and necrotic cell death was determined previously (Duke and Cohen, In: Current Protocols in Immunology, 3.17.1-3.17.16, New York, John Wiley and Sons, 1992). […]
The apoptosis inducing activity for a series of phosphodiesterase inhibitors was determined. […] Apoptosis and necrosis were determined morphologically after acridine orange and ethidium bromide labeling in accordance with the assay described, supra.

In test [7] the target is T3, novel cGMP-specific PDE Peak B (Section IIB) from SW480 cells (Homo sapiens, UniProt O00408).
T3 construct: IC50 Peak B (μM); native enzyme
T3 sequence (O00408 whole entry): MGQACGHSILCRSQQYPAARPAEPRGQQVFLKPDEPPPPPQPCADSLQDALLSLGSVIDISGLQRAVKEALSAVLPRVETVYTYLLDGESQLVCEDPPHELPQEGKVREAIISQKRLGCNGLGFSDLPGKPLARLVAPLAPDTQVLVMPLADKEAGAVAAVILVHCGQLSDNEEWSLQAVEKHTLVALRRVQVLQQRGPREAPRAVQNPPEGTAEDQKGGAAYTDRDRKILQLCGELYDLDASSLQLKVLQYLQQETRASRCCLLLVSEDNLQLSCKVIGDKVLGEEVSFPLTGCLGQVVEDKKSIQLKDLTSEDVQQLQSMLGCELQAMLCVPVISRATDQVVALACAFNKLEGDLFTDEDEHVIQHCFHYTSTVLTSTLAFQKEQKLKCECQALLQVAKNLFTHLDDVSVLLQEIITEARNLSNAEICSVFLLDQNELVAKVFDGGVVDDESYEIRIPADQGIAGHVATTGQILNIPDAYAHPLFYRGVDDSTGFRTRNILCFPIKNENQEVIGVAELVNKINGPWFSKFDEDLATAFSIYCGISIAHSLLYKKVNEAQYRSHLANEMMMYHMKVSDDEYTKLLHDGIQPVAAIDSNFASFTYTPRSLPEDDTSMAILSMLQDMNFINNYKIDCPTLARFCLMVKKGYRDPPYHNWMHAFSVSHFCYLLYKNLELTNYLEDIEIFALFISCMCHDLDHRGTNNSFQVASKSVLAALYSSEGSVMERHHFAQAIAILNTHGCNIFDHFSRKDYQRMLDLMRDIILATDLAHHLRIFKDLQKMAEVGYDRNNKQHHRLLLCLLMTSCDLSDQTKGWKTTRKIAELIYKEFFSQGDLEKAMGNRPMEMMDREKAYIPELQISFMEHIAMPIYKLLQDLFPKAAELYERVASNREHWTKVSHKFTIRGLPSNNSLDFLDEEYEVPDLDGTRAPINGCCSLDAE
Description: Inhibition of cGMP hydrolysis by novel PDE Peak B from SW480. The format is biochemical.

Test [8] deals with novel cGMP-specific PDE Peak B (Section IIB) from SW480 cells. The description is as above. The format is biochemical, human.
In test [9] the test system is Calu-6 adenocarcinoma cell line. In words: Cell growth, alone and in combination with vinca alkaloid. The following applies: Calu-6, 1-hour exposure, 0.01 mcg/ml. Type of test: cell-based, human. The procedure: Exisulind and Compound I were analyzed using two human lung cancer cell lines; H460, a large cell carcinoma with a doubling time of 16 hours, and Calu-6, an adenocarcinoma with a doubling time of 21 hours. Exisulind and Compound I were analyzed alone and in combination with the vinca alkaloid, Navelbine™ vinorelbine. The cytotoxic agents were administered for 1 hour, while exisulind and Compound I were administered for either 1 hour or given as a continuous exposure.
Cells were plated on day 0 and allowed to attach. On day 1, the cells were exposed to one of the cytotoxic agents dissolved in media pre-warmed to 37° C. and incubated at 37° C. for 1 hour. The cells were then washed twice and re-fed pre-warned media with or without either exisulind or Compound I and incubated for one hour at 37° C. After the one-hour incubation, the cells were washed twice, re-fed, and returned to the incubator; the continuous exposure cultures were not washed and re-fed. Appropriate controls were included for each condition. […] All data points were done in triplicate and the mean graphed as a percent of control growth.
Exisulind and Compound I were first dissolved in DMSO and brought to the desired concentrations by slowly adding warm media to the drug-DMSO solution to prevent precipitation.

Read-outs that look alike come from different tables or passages of the source. Where only a bound is given, the exact number is not on record here.

As for “5-fluoro-2-methyl-1-(p-methylsulfinylbenzylidene)-3-indenylacetic acid [Sulindac sulfide]”, in test [1], the “Competitive (with cGMP) binding/inhibition, Peak A” value was “competitively inhibited both Peaks A and B phosphodiesterases at the same potency”. Besides, in test [2], the “Increase in levels of cGMP” value was “greater than 50%” and the “Levels of cAMP” value is given as “unaffected”. The “Growth inhibition and apoptosis time course” value in test [3] (HT-29, 120 μM, viable cells by trypan blue, apoptosis morphological) was “capable of inhibiting tumor cell growth, and that the effect is accompanied by an increase in apoptosis”. Moreover, the “Inhibition of premalignant lesions in mammary gland organ culture” value in [4] is “inactive”. The “Competition with cGMP for binding of GST-cGB-PDE5” value in test [5] (3H-cGMP 2 μM) is “do not bind to the cGMP binding sites of PDE5”.

With `CCCCOC1C2OP(=O)(O)OCC2OC1n1cnc2c(N)ncnc21` (stereo not shown) [2′-O-butyl-cAMP], in [5] (3H-cGMP 2 μM), the “Competition with cGMP for binding of GST-cGB-PDE5” value is reported as “did not compete with cGMP in binding”.

As to `CCCCOC1C2OP(=O)(O)OCC2OC1n1cnc2c(=O)[nH]c(N)nc21` (stereo not shown) [2′-O-butyl-cGMP], in test [5] (3H-cGMP 2 μM), the “Competition with cGMP for binding of GST-cGB-PDE5” value is reported as “did not compete with cGMP in binding”.

For `COCc1nc2c([nH]1)c(=O)n(C)c(=O)n2CC(C)C` [8-methoxy-IBMX], in test [6], the “% Apoptosis” value was determined as 2% and the “% Necrosis” value amounted to 1%. Besides, the IC50 (commonly the concentration needed to halve the response being measured) in test [3] (HT-29, 6 days, SRB assay) was above 200 µM.

Consider `Nc1nc2c(nc(Br)n2[C@@H]2O[C@@H]3COP(=O)(O)O[C@H]3[C@H]2O)c(=O)[nH]1` [Compound 8-bromo-cGMP, 8-bromo-cGMP], for which the “Competition with cGMP for binding of GST-cGB-PDE5 at high concentration” value in test [5] was “can partially compete with cGMP”.

For the molecule `COc1cc(C=C2C(C)=C(CC(=O)O)c3cc(F)ccc32)cc(OC)c1OC` [Compound B, (Z)-5-Fluoro-2-methyl-1-(3,4,5-trimethoxybenzylidene)-3-acetic acid], the “Competition with cGMP for binding of GST-cGB-PDE5” value in test [5] (3H-cGMP 2 μM) is recorded as “do not bind to the cGMP binding sites of PDE5”.

With `COc1cc(/C=C2/C(C)=C(CC(=O)NCc3ccccc3)c3cc(F)ccc32)cc(OC)c1OC` [Compound E, (Z)-5-Fluoro-2-methyl-1-(3,4,5-trimethoxybenzylidene)-3-indenylacetamide, N-benzyl], the “Competitive (with cGMP) binding/inhibition, Peak A” value in [1] is recorded as “does competitively (with cGMP) bind to PDE 5 (i.e., Peak A)”. Besides, in test [7], the “Competitive (with cGMP) binding/inhibition, Peak B” value was “also competitively (with cGMP) binds to PDE Peak B” and half-maximal inhibition (IC50) required 0.37 µM. Moreover, in [8], the “Ratio (IC50 PeakA/Peak B)” value came to 1.0. For the same molecule, the “Competition with cGMP for binding of GST-cGB-PDE5” value in [5] (3H-cGMP 2 μM) was “do not bind to the cGMP binding sites of PDE5”.

As for `Nc1ncnc2c1ncn2[C@@H]1O[C@@H]2COP(=O)(O)O[C@H]2[C@H]1O` [Cyclic AMP], in test [5], the “Competition with cGMP for binding of GST-cGB-PDE5” value was “did not compete with cGMP in binding”.

For the molecule `O=c1[nH]cnc2c1ncn2[C@@H]1O[C@@H]2COP(=O)(O)O[C@H]2[C@H]1O` [Cyclic IMP], the “Competition with cGMP for binding of GST-cGB-PDE5 at high concentration” value in [5] is “can partially compete with cGMP”.

On to `CC1(C)C(=O)Nc2ccc(C3=NNC(=O)CC3)cc21` [Indolidan], for which, in [7], the IC50 is above 100 µM. In test [8], the “Ratio (IC50 PeakA/Peak B)” value is on record as below 0.31.

With `COc1ccc(C2CNC(=O)C2)cc1OC1CCCC1` (stereo not shown) [Rolipram], in test [7], the IC50 was above 100 µM. For the same molecule, the “Levels of cAMP” value in [2] is “increased cAMP”.

As for `CCCc1nn(C)c2c(=O)[nH]c(-c3cc(S(=O)(=O)N4CCN(C)CC4)ccc3OCC)nc12` [Sildenafil, sildenafil], in test [1], the “Inhibition of Peak A activity” value is recorded as “inhibited activity of Peak A”.

Consider `CCOC(=O)C1=C[C@]2(CC)CCCN3CCc4c(n1c1ccccc41)[C@@H]32` [Vinpocetine], for which the IC50 in test [7] is above 100 µM.

Regarding `CCCOc1ccccc1-c1nc2nn[nH]c2c(=O)[nH]1` [Zaprinast, zaprinast], in test [5] (3H-cGMP 2 μM), the “Competition with cGMP for binding of GST-cGB-PDE5” value is “do not bind to the cGMP binding sites of PDE5”.

Turning to `Nc1ccn([C@@H]2O[C@@H]3COP(=O)(O)O[C@H]3[C@H]2O)c(=O)n1` [cCMP, cyclic CMP], the “Competition with cGMP for binding of GST-cGB-PDE5” value in test [5] (3H-cGMP 2 μM) is “did not compete with cGMP in binding”.

For the molecule `O=c1ccn([C@@H]2O[C@@H]3COP(=O)(O)O[C@H]3[C@H]2O)c(=O)[nH]1` [cUMP, cyclic UMP], in [5] (3H-cGMP 2 μM), the “Competition with cGMP for binding of GST-cGB-PDE5” value is on record as “did not compete with cGMP in binding”.

`CCC1=C[C@@H]2CN(C1)Cc1c([nH]c3ccccc13)[C@@](C(=O)OC)(c1cc3c(cc1OC)N(C)[C@H]1[C@@](O)(C(=O)OC)[C@H](OC(C)=O)[C@]4(CC)C=CCN5CC[C@]31[C@@H]54)C2` [vinca alkaloid, vinorelbine]: the “% of control growth” value in test [9] worked out at 52%. In test [9] (Homo sapiens, Calu-6, 1 h, read-out: % of control growth), the activity at 0.01 µg/mL amounted to 56%.
